Results from publication PMC6268642, “Facile Synthesis and Herbicidal Evaluation of 4H-3,1-Benzoxazin-4-ones and 3H-Quinazolin-4-ones with 2-Phenoxymethyl Substituents” (Molecules, 2012).
Like-named read-outs stand apart in the source and are kept apart here.

Experiments:
[1] = test system: barnyard grass Echinochloa crusgalli; assay: Petri dish culture, growth inhibition of root and stalk of barnyard grass; assay type: in vivo; details: Echinochloa crus-galli, 120 h, 5 days; for inhibition at 1 µg/mL: 1 mg/L; for inhibition at 10 µg/mL: 10 mg/L
Description: (§1) The synthesized compounds were tested for the herbicidal activity on model plants including a monocotyledon (barnyard grass) and a dicotyledon (rape) by the reported Petri dish culture method. The percent inhibitory ratios against the growth of root and stalk of barnyard grass and rape at different dosage concentrations were calculated, and the compounds with appreciable inhibitory potencies are selected and shown in Table 1 and Table 2. Several features of the inhibitory activities can be derived. First, all the compounds have stronger inhibition against the growth of the dicotyledon rape than against the monocotyledon barnyard grass, showing appreciable selectivity.
(§2) The herbicidal activity was examined for the growth inhibition effect of the dicotyledon rape Brassica napus and the monocotyledon barnyard grass Echinochloa crusgalli, using the standard Petri dish test and the pre-emergence treatment procedure. […] Nine mL of the solution was added in a Petri dish of 9 cm diameter and two pieces of filter paper were placed on the dish bottom. Twenty seeds each of rape and barnyard grass were placed on the filter paper. The covered Petri dish was transferred into an artificial climate incubator (MGC-400H, Shantou Keyi Co., Ltd., China), where the conditions were controlled at temperature 23 ± 1 °C, humidity 60 ± 5%, light intensity 10 Klux, and photoperiod 12 h/day. The incubation was continued for 5 days, then the lengths of 10 roots and 10 stems for each type of plant were measured and the mean values were calculated. The percent inhibitory ratios were calculated relative to control plants exposing to distilled water instead of the compound solution.

[2] = test system: rape Brassica napus; assay: Petri dish culture, growth inhibition of root and stalk of rape; assay type: in vivo; details: Brassica napus, 120 h, 5 days; for inhibition at 1 µg/mL: 1 mg/L; for inhibition at 10 µg/mL: 10 mg/L
Description: as §1, §2

[3] = test system: rape Brassica napus; assay: Concentration-dependent root elongation inhibition of rape (IC50); assay type: in vivo; details: Brassica napus
Description: Several representative compounds selected from the 2-phenoxy-4H-3,1-benzoxazin-4-one and 2-phenoxy-3H-quinazolin-4-one groups were tested their concentration dependant activities and the half maximal inhibitory concentrations (IC50 values) are shown in Table 3. Obviously, the 2-phenoxy-4H-3,1-benzoxazin-4-ones 3m and 3o have IC50 values near to that of the commercial herbicidal 2,4-D. More importantly, these molecules consist of 2-phenoxymethyl group with halo substituents both at the 2- and 4- positions of the benzene ring, a similar pattern to the commercial hormone herbicides 2,4-D, clomeprop, and 2,4-DB, as well as the ACCase herbicide diclofop-methyl. […] Moreover, if no halo group exists on the benzene ring, the activity will decrease dramatically. On the other hand, the substructure 4H-3,1-benzoxazin-4-one in this work and the carboxylic group in the commercial phenoxyethanoic and phenoxypropionic acid herbicides play also a crucial role in the contribution to the activities of the compounds, meaning they are active substructures.
The herbicidal activity was examined for the growth inhibition effect of the dicotyledon rape Brassica napus and the monocotyledon barnyard grass Echinochloa crusgalli, using the standard Petri dish test and the pre-emergence treatment procedure. Briefly, the compounds to be tested were dissolved in DMF and emulsified with Tween 80, and the solutions were diluted with water to the concentrations of […], respectively. Nine mL of the solution was added in a Petri dish of 9 cm diameter and two pieces of filter paper were placed on the dish bottom. Twenty seeds each of rape and barnyard grass were placed on the filter paper. The covered Petri dish was transferred into an artificial climate incubator (MGC-400H, Shantou Keyi Co., Ltd., China), where the conditions were controlled at temperature 23 ± 1 °C, humidity 60 ± 5%, light intensity 10 Klux, and photoperiod 12 h/day. The incubation was continued for 5 days, then the lengths of 10 roots and 10 stems for each type of plant were measured and the mean values were calculated. The percent inhibitory ratios were calculated relative to control plants exposing to distilled water instead of the compound solution.

[4] = root growth, read-out: Relative inhibition, root
[5] = stalk growth, read-out: Relative inhibition, stalk
[6] = rape root elongation, Table 3, read-out: IC50 for the root elongation inhibition of rape

| SMILES | inhibition at 1 µg/mL [1, 4] [%] | inhibition at 1 µg/mL [1, 5] [%] | inhibition at 10 µg/mL [1, 4] [%] | inhibition at 10 µg/mL [1, 5] [%] | inhibition at 1 µg/mL [2, 4] [%] | inhibition at 1 µg/mL [2, 5] [%] | inhibition at 10 µg/mL [2, 4] [%] | inhibition at 10 µg/mL [2, 5] [%] | melting point [°C] | IC50 [3, 6] [µM] | IC50 ([3]; rape root growth, read-out: IC50, inhibitory efficacy against the rape root growth) [µM] |
| --- | --- | --- | --- | --- | --- | --- | --- | --- | --- | --- | --- |
| O=c1oc(COc2ccc(Cl)cc2Cl)nc2ccccc12 [3m, 2-((2,4-Dichlorophenoxy)methyl)-4H-3,1-benzoxazin-4-one] | 38.3 | -22.7 | 100 | -0.6 | 96.3 | 77.7 | 100 | 93.8 | 118.5 to 119.3 | 10.3 | – |
| O=c1oc(COc2ccc(Cl)cc2Cl)nc2cccc(Cl)c12 [3n, 5-Chloro-2-((2,4-dichlorophenoxy)methyl)-4H-benzo[3,1]oxazin-4-one] | 44.4 | 12.8 | 57.5 | -1.9 | 80.5 | 38.7 | 79.2 | 45.9 | 161.9 to 163.2 | 43.5 | – |
| O=c1oc(COc2ccc(Cl)cc2Cl)nc2ccc(Cl)cc12 [3o, 6-Chloro-2-((2,4-dichlorophenoxy)methyl)-4H-3,1-benzoxazin-4-one] | 73.6 | -29.1 | 89.4 | 14.5 | 93.7 | 66.2 | 100 | 91.4 | 157.9 to 160.1 | 10.7 | 0.0104 |
| O=c1oc(COc2ccc(Cl)cc2Cl)nc2cc(Cl)ccc12 [3p, 7-Chloro-2-((2,4-dichlorophenoxy)methyl)-4H-3,1-benzoxazin-4-one] | 64.3 | 5.9 | 100 | -14.4 | 98 | 82.3 | 100 | 91.4 | 139.6 to 142.5 | 11.1 | – |
| COc1cc2nc(COc3ccc(Cl)cc3Cl)oc(=O)c2cc1OC [3q, 2-((2,4-Dichlorophenoxy)methyl)-6,7-dimethoxy-4H-3,1-benzoxazin-4-one] | 35.5 | -7.4 | 51.9 | -52.8 | 58.3 | 14.8 | 100 | 85.2 | 161.9 to 163.2 | 142 | – |
| Nn1c(COc2ccc(Cl)cc2Cl)nc2ccccc2c1=O [4f, 3-Amino-2-((2,4-dichlorophenoxy)methyl)-3H-quinazolin-4-one] | 35 | -5 | 22.2 | -6.6 | 65.6 | 48.1 | 73.4 | 48.1 | 214.6 to 215.7 | 224 | – |
| COc1cc2nc(COc3ccc(Cl)cc3Cl)n(N)c(=O)c2cc1OC [4j, 3-Amino-2-((2,4-dichlorophenoxy)methyl)-6,7-dimethoxy-3H-quinazolin-4-one] | 7.7 | 8.3 | 60 | 5 | 58.4 | 40.2 | 84.9 | 67.2 | 272.3 to 273.1 | 168 | – |
| Cn1c(COc2ccc(Cl)cc2)nc2cccc(Cl)c2c1=O [4k, 5-Chloro-2-((4-chlorophenoxy)methyl)-3-methyl-3H-quinazolin-4-one] | 32.2 | 7.5 | 50.9 | 1.5 | 48.8 | 21.6 | 81.9 | 52.9 | 184.9 to 185.7 | 201 | – |
